Results taken from the NIST ThermoML archive (doi:10.1021/je0501991).
± gives the expanded uncertainty stated by the source.

What was measured:
[1] = 101.33 kPa, Liquid
[2] = refractive index (Na D-line) (dimensionless); conditions: 101.33 kPa, Liquid, Standard Abbe refractometry
[3] = molar heat capacity at constant pressure; xn = mol fraction of the nth substance listed; conditions: Liquid, x1 = 1

OCc1ccccc1 [benzenemethanol]
mass density ([1]; 298.15 K): 1041.65 ± 0.27 kg/m3 | viscosity ([1]; 298.15 K): 5.211 ± 0.076 mPa·s | mass density ([1]; 308.15 K): 1033.66 ± 0.25 kg/m3 | viscosity ([1]; 308.15 K): 4.125 ± 0.062 mPa·s | refractive index ([2]; 298.15 K): 1.5377 ± 0.0005 | refractive index ([2]; 308.15 K): 1.535 ± 0.0005

C[S+](C)[O-] [dimethyl sulfoxide] + OCCc1ccccc1
molar heat capacity at constant pressure ([3]; 298.15 K, 101.33 kPa): 142.7 ± 11 J/K/mol | molar heat capacity at constant pressure ([3]; 308.15 K, 101.33 kPa): 143.5 ± 12 J/K/mol | molar heat capacity at constant pressure ([3]; 318.15 K, 101.33 kPa): 144.6 ± 12 J/K/mol

OCCc1ccccc1 [2-phenylethanol]
mass density ([1]; 308.15 K): 1008.79 ± 0.54 kg/m3 | viscosity ([1]; 308.15 K): 7.438 ± 0.12 mPa·s | refractive index ([2]; 308.15 K): 1.5267 ± 0.0008

OCCCc1ccccc1 [3-phenyl-1-propanol]
viscosity ([1]; 298.15 K): 10.13 ± 0.17 mPa·s | mass density ([1]; 308.15 K): 991.17 ± 0.53 kg/m3 | refractive index ([2]; 308.15 K): 1.521 ± 0.001

C[S+](C)[O-] [dimethyl sulfoxide]
viscosity ([1]; 298.15 K, Capillary tube (Ostwald / Ubbelohde) method): 1.989 ± 0.023 mPa·s | mass density ([1]; 298.15 K, Vibrating tube method): 1095.68 ± 0.09 kg/m3 | viscosity ([1]; 308.15 K, Capillary tube (Ostwald / Ubbelohde) method): 1.645 ± 0.019 mPa·s | mass density ([1]; 308.15 K, Vibrating tube method): 1085.31 ± 0.09 kg/m3 | refractive index ([2]; 298.15 K): 1.4775 ± 0.0004 | refractive index ([2]; 308.15 K): 1.473 ± 0.0004

C[S+](C)[O-] [dimethyl sulfoxide] + OCc1ccccc1
molar heat capacity at constant pressure ([3]; 298.15 K, 101.33 kPa): 142.7 ± 11 J/K/mol | molar heat capacity at constant pressure ([3]; 308.15 K, 101.33 kPa): 143.5 ± 12 J/K/mol | molar heat capacity at constant pressure ([3]; 318.15 K, 101.33 kPa): 144.6 ± 12 J/K/mol

C[S+](C)[O-] [dimethyl sulfoxide] + OCCCc1ccccc1
molar heat capacity at constant pressure ([3]; 298.15 K, 101 kPa): 142.7 ± 11 J/K/mol | molar heat capacity at constant pressure ([3]; 308.15 K, 101 kPa): 143.5 ± 12 J/K/mol | molar heat capacity at constant pressure ([3]; 318.15 K, 101 kPa): 144.6 ± 12 J/K/mol
